Source: patent publication US20250201546A1, “METHOD FOR PROCESSING SUBSTRATE, KIT FOR PROCESSING SUBSTRATE, AND METHOD FOR MANUFACTURING SEMICONDUCTOR SUBSTRATE” (TOKYO OHKA KOGYO CO., LTD., priority 2023, published 2025)

Test: Hansen solubility parameter (SP value and terms) of reagents
Assay type: physicochemical
Set-up: unit: MPa^0.5
Conditions: SP^2=δD^2+δP^2+δH^2
Source text: The SP value of Hansen solubility parameter herein is a value obtained by dividing the solubility parameter introduced by Hildebrand into three parameters, the dispersion term OD, the polarity term OP, and the hydrogen bond term OH, and plotting a point in a three-dimensional space (Hansen space, HSP space).
The dispersion term δD represents the effect due to dispersion force, the polarity term δP represents the effect due to dipole-dipole force, and the hydrogen bond term OH represents the effect due to hydrogen bond force. […]
δD: The energy derived from dispersion forces between molecules (the dispersion term) δP: The energy derived from polar forces between molecules (the polarity term) δH: The energy derived from hydrogen bond forces between molecules (the hydrogen bond term) The unit of each of the terms is MPa^0.5.
There is a relationship between Hildebrand's SP value and Hansen's HSP as shown below.
(Hildebrand's SP)^2=δD^2+δP^2+δH^2
Suitable examples of the silane coupling agent having a SP value of 15 or more may include the followings. Needless to say, the silane coupling agent used in the present embodiment is not limited to those below.

| SMILES | SP value |
| --- | --- |
| CO[Si](CCCNCCCCCCN)(OC)OC [AHAPTMS, 3-(6-aminohexylamino) propyltrimethoxysilane] | 15.3 |
| CO[Si](C)(OC)OC [MTMS, methyltrimethoxysilane] | 15.2 |
| CCO[Si](CCCN)(OCC)OCC [APTES, 3-aminopropyltriethoxysilane] | 15.2 |
| CO[Si](CCCNCCN)(OC)OC [AEAPTMS, 3-(2-aminoethylamino) propyltrimethoxysilane] | 16.2 |
| CCO[Si](CCCNCCN)(OCC)OCC [AEAPTES, 3-(2-aminoethylamino) propyltriethoxysilane] | 15.6 |
| CO[Si](CCCN)(OC)OC [APTMS, 3-aminopropyltrimethoxysilane] | 15.8 |
